Measured values taken from publication PMC9024805, “Non-Effective Improvement of Absorption for Some Nanoparticle Formulations Explained by Permeability under Non-Sink Conditions” (Pharmaceutics, 2022).

How the values were obtained:
[1] = set-up: method as in PMID 17694546; conditions: cited from earlier work
[2] = Solubility from concentrations in the donor chambers; conditions: pH 6.5, 37 °C
Procedure: At 0, 30, 60, 120, 240 and 360 min, 100 μL of the acceptor chamber solution was withdrawn and diluted 2-fold. […] To measure the exact concentration in the donor chamber containing the nanosuspensions, the filtration method was applied according to a previous report [32]. Then, 100 μL of the filtered solution was diluted 2-fold. The sample concentration was determined by ultra-high-performance liquid chromatography (UHPLC).

[3] = Permeability under sink conditions (previous study / calculated for Figure 11); type: in vitro ADME; conditions: not told, given in Figure 11
Text: To assess the impact of permeability under non-sink conditions, we compared it with that under sink conditions.

[4] = set-up: method as in PMID 33801447; conditions: previous study ref 25; cited from earlier work

| Compound | Papp using PAMPA relative to that of griseofulvin [1] | Effect of nanonization / particle size on solubility [2] | Papp [3] [×10⁻⁶ cm/s] | Papp under sink conditions [4] [×10⁻⁶ cm/s] |
| --- | --- | --- | --- | --- |
| CC(=O)[C@H]1CC[C@H]2[C@@H]3CCC4=CC(=O)CC[C@]4(C)[C@H]3CC[C@]12C [progesterone] | 2–3 times | – | – | – |
| COC1=CC(=O)C[C@@H](C)[C@]12Oc1c(Cl)c(OC)cc(OC)c1C2=O [griseofulvin] | – | not improved by nanonization | 250 | 247 |
